Experimental data: patent US5091365A, “Cyclic peptides as promoters of absorption on administration onto the mucosa” (Hoechst Aktiengesellschaft, priority 1987, dated 1992)
Values belong to the compound of their own block, whether it stands above or below them.

Legend:
female rats [1] = assay: Ovulation induction in PMSG-pretreated, phenobarbital-blocked female rats (number of ova counted); format: in vivo, rat
Method: 1. The effect of cyclic peptides on the nasal and rectal absorption of LHRH (gonadorelin) and LHRH agonists (for example buserelin) was investigated in the following way: female rats weighing 60 g are pretreated with horse serum gonadotropin (PMSG) 10 I.U. (day 1, 09:00) for follicle stimulation. On the third day after the pretreatment, the ovulation which spontaneously occurs at about 14:00 is suppressed by injection of phenobarbital (4 mg/animal i.p. around 13:00). The treatment with the test substance (for example LHRH or buserelin intranasally in a physiologically tolerated buffer solution of pH 3.0-7.5 in a volume of 2-20 μl, rectal administration of suppositories etc.) is carried out at about 13:30. This treatment induces ovulation dose-dependently. On the next day of the experiment (day 4) the animals are sacrificed at about 09:00, both uterine tubes are dissected out and, after staining with patent blue, the number of ova is counted under a stereomicroscope (ovulatory effect of the test substances). The increase in the absorption of the test substances from mucosal surfaces is assessed by comparison of the effect on ovulation in the absence or after addition of, for example, bacitracin 0.001-0.05M. It is also possible to use as parameter of the effect in the same design of experiment the dose-dependent increase in luteinizing hormone (LH) in the serum one hour after treatment. [Sandow J, von Rechenberg W & Jerzabek G (1976): The effect of LHRH, prostaglandins and synthetic analogues of LHRH on ovarian metabolism. Europ. J. Obstetr. Gynaec. Reprod. Biol. 6, 185-190.]

rat = assay: Increase of absorption of peptide active substances from the mucosa in the rat; format: in vivo
Method: 1. The effect of cyclic peptides on the nasal and rectal absorption of LHRH (gonadorelin) and LHRH agonists (for example buserelin) was investigated in the following way: female rats weighing 60 g are pretreated with horse serum gonadotropin (PMSG) 10 I.U. (day 1, 09:00) for follicle stimulation. On the third day after the pretreatment, the ovulation which spontaneously occurs at about 14:00 is suppressed by injection of phenobarbital (4 mg/animal i.p. around 13:00). […] On the next day of the experiment (day 4) the animals are sacrificed at about 09:00, both uterine tubes are dissected out and, after staining with patent blue, the number of ova is counted under a stereomicroscope (ovulatory effect of the test substances). The increase in the absorption of the test substances from mucosal surfaces is assessed by comparison of the effect on ovulation in the absence or after addition of, for example, bacitracin 0.001-0.05M. […]
2. […] It emerged that both bacitracin and colistin and polymyxin B (0.01M) increased the effect of a dose of 10 ng of buserelin, measured by the areas under the curve, by a factor of 3.3-14.
3. […] GH in serum is determined 15-120 minutes after the treatment (for example nasally or rectally) by a specific radioimmunoassay.

rectal mucosa = assay: Rectal mucosa tolerability of hard fat suppositories in rats; format: in vivo, rat; details: hard fat suppositories with 1 mg of bacitracin, rats weighing 100 g, 3 hours after treatment
Method: Furthermore, the compounds according to the invention cause no sensation of pain in humans on nasal administration of 1 to 200 μl of a concentration of 10^-5 to 10^-1 mol/l. […] Local administration of the same concentration by vaginal, rectal or buccal drug forms (i.e., for example, films, tablets, suppositories) likewise causes no irritation to the mucosa.

[2] = system: isolated gastric mucosa of the guinea pig; assay: Tolerability: patent blue permeation through isolated guinea pig gastric mucosa
Excerpt: 6. The tolerability of various cyclic peptides as are used as aids to increase absorption can be tested on the isolated gastric mucosa of the guinea pig. [Wirth K, Bickel M & Deutschlander N (1987): Patent blue permeation through the isolated guinea pig gastric mucosa: a quantitative method for the assessment of gastric irritants. Med. Sci. Res. 15, 881.]

female rats [3] = assay: Release of growth hormone (GH) in serum of PMSG-pretreated rats, radioimmunoassay; format: in vivo, rat; details: for finding with other GHRH agonists on addition of bacitracin (GH release): compared with (DAla2) GRF-29 amide: 40 μg without = 20 μg with 0.001M bacitracin
Method: 3. The effect of cyclic peptides of the nasal absorption of GHRH analogs was investigated in the following way: In the same model as described for the ovulatory effect of LHRH, it is possible on the third day after the pretreatment with PMSG to test the release of growth hormone (GH). GH in serum is determined 15-120 minutes after the treatment (for example nasally or rectally) by a specific radioimmunoassay.

male rats [4] = assay: Serum calcium concentration in male rats after intranasal salmon calcitonin; format: in vivo, rat; details: 0.6-1.2 μg of salmon calcitonin intranasal, addition of 0.01M bacitracin, 1-6 h
Method: 5. The effect of cyclic peptides on the absorption of calcitonin and calcitonin analogs (for example salmon calcitonin) can be investigated on male rats weighing 100 or 200 g, for example after intranasal treatment with salmon calcitonin, by determination of the serum calcium concentration over a period of 1-6 h after the treatment. It was found in this that the effect of 0.6-1.2 μg of salmon calcitonin was increased by a factor of 4-6 by addition of, for example, 0.01M bacitracin.

male rats [5] = assay: LH release in male rats under urethane anesthesia over 6-7 hours; format: in vivo, rat; details: aid 0.01M, 10 ng of buserelin
Method: 2. An example of another method suitable for detecting the enhancement of the effect due to increased absorption is determination of the LH release in male rats (weighing 100 g, under urethane anesthesia). […] It emerged that both bacitracin and colistin and polymyxin B (0.01M) increased the effect of a dose of 10 ng of buserelin, measured by the areas under the curve, by a factor of 3.3-14.

male rats [6] = assay: Corticosterone release in serum of male rats after nasal ACTH analog, radioimmunoassay; format: in vivo, rat; details: over 3 h after nasal alsactide (ACTH-17) 5 μg in the presence of 0.01M bacitracin
Method: 4. The effect of cyclic peptides on the absorption of ACTH (corticotropin) and ACTH analogs was investigated in male rats (weighing 100 g) after treatment under anesthesia with pentobarbital or ether. The corticosterone release in the serum was determined by a specific radioimmunoassay as a parameter of the effect. It emerged that the corticosterone release over 3 h after nasal treatment, for example, with the ACTH analog alsactide (ACTH-17) in a dose of 5 μg was increased by a factor of 5 in the presence of 0.01M bacitracin.

female rats [7] = assay: Increase in luteinizing hormone (LH) in serum, same design of experiment in female rats; format: in vivo, rat

Compound: bacitracin
dose of LHRH giving the same ovulatory effect, with aid (female rats [1]; LHRH in a solution of 0.001M bacitracin, equals effect of 8 μg without aid): 2 µg
dose of buserelin giving the same ovulatory effect, with aid (female rats [1]; buserelin in a solution of 0.001M bacitracin, equals effect of 80 ng without aid): 20 ng
dose of buserelin at which ovulation was induced, rectal suppositories, after addition of bacitracin (female rats [1]; rectal treatment of rats with buserelin suppositories plus bacitracin): 50 ng
increase of absorption of LHRH agonists, GHRH agonists and similar active substances, factor (rat; addition of 0.001M bacitracin): 3-4
inflammatory change of the rectal mucosa (rectal mucosa): no inflammatory change
concentration that can be placed on the mucosa without damage [2]: more than 0.006 M
dose of (DAla2) GRF-29 amide giving corresponding GH release effect, with bacitracin (female rats [3]; i.n., addition of 0.001M bacitracin, equals effect of 40 μg without): 20 µg
increase of the effect of salmon calcitonin (serum calcium), factor (male rats [4]): 4-6
increase of the effect of buserelin on LH release, areas under the curve, factor (male rats [5]): 3.3-14
increase of corticosterone release, factor (male rats [6]): 5
enhancement of absorption, factor, from LH release by buserelin (female rats [7]; buserelin in the presence of 0.001M bacitracin): more than 3

Compound: CCNC(=O)[C@@H]1CCCN1C(=O)[C@H](CCCNC(=N)N)NC(=O)[C@H](CC(C)C)NC(=O)[C@@H](COC(C)(C)C)NC(=O)[C@H](Cc1ccc(O)cc1)NC(=O)[C@H](CO)NC(=O)[C@H](Cc1c[nH]c2ccccc12)NC(=O)[C@H](Cc1cnc[nH]1)NC(=O)[C@@H]1CCC(=O)N1 [buserelin]
dose of buserelin giving the same ovulatory effect, without aid (female rats [1]; buserelin in physiological saline containing 0.1% gelatin): 80 ng
dose of buserelin at which ovulation occurred, rectal suppositories, without bacitracin (female rats [1]; rectal treatment of rats with buserelin suppositories, no aid): 400 ng

Compound: CC(C)C[C@H](NC(=O)CNC(=O)[C@H](Cc1ccc(O)cc1)NC(=O)[C@H](CO)NC(=O)[C@H](Cc1c[nH]c2ccccc12)NC(=O)[C@H](Cc1cnc[nH]1)NC(=O)[C@@H]1CCC(=O)N1)C(=O)N[C@@H](CCCNC(=N)N)C(=O)N1CCC[C@H]1C(=O)NCC(N)=O [LHRH, LHRH (gonadorelin)]
dose of LHRH giving the same ovulatory effect, without aid (female rats [1]; LHRH in physiological saline containing 0.1% gelatin): 8 µg

Compound: (DAla2, NLeu27) GRF-29 amide
finding with other GHRH agonists on addition of bacitracin (GH release) (female rats [3]): similar

concentration required to increase absorption in the rat (rat; rat, in vivo): 0.02 M
Compound: C[C@H](CCC(=O)O)[C@H]1CC[C@H]2[C@@H]3CC[C@@H]4C[C@H](O)CC[C@]4(C)[C@H]3C[C@H](O)[C@]12C [deoxycholic acid]

Compound: (Leu27, Gly45) GHRH (1-44)
finding with other GHRH agonists on addition of bacitracin (GH release) (female rats [3]): similar

Compound: colistin
increase of the effect of buserelin on LH release, areas under the curve, factor (male rats [5]): 3.3-14
enhancement of LHRH effect on investigation of the LH release (female rats [7]; LHRH in the presence of 0.001M colistin): this effect also emerged

Compound: polymyxin B
increase of the effect of buserelin on LH release, areas under the curve, factor (male rats [5]): 3.3-14

Compound: (DAla2) GRF-29 amide
dose of (DAla2) GRF-29 amide giving corresponding GH release effect, without bacitracin (female rats [3]; i.n., without bacitracin): 40 µg
